{"source": "patent US6605305B2", "about": "“Plant drug for treatment of liver disease” (priority 2001, dated 2003)", "key": {"[1]": {"tested_on": "Serum alamine aminotransferase (ALT)", "assay": "Serum ALT activity in CCl4-intoxicated mice", "assay_type": "in vivo", "procedure": "(§1) Female Balb/c mice (22-24 g) were maintained at 20° C. and a 12 hours light/dark cycle. The food and water allowed adliboti. Mice were randomly assigned to groups of 20 individuals. Twenty-four hours after the last dosing, animals were administered an oral dose of CCl4 (1%, v/v, in olive oil) at 1.0 mmol/kg. In treatment group, mice were treated intragastrically with SCS at daily dose of 50 mg/kg for 4 days. Control animals were given the vehicle (i.e. olive oil, 1 mL/kg). Twenty-four hours after intoxication, heparinized blood samples were drawn from ether-anesthetized mice by cardiac puncture, and the animals were killed by cardiac excision thereafter.\nAnimal section described as previously. Plasma was obtained by centrifugation. The whole blood at 2000×g at 4° C. Serum alamine aminotransferase (ALT) activity was determined by assay kit from Sigma Chemical Co."}, "[2]": {"tested_on": "Benzpyrene hydroxylase", "assay": "Hepatic microsomal monooxygenases: benzpyrene hydroxylase", "assay_type": "in vivo", "conditions": "rat liver microsomes, treatment group"}, "[3]": {"tested_on": "ATP", "assay": "ATP concentration with TET", "assay_type": "biochemical", "conditions": "TET 5 μl/L + SCS (100 μmol/L)", "procedure": "(§2) In present study, the effect of SCS on ATP and oxygen consumption was examined. The experiments of animal and livers were performed as previously described."}, "[4]": {"tested_on": "indomethacin induced small intestine mucosal damage", "assay": "Indomethacin induced small intestine mucosal damage", "assay_type": "in vivo, rats", "procedure": "The experiment of animal was performed as previously described. Mucosal damage in gastrointestinal tract was induced ethanol or indomethacin administration. In ethanol-treated animals, after 24 hours of fasting, ethanol was given orally (70%, v/v, 10 ml/kg) by means of an oral gastric. Mucosal damage was assessed by measurement of areas with hemorrhagic lesion. In the indomethacin ulcer model, rats were refed for 1 hour after 24 hours of fasting. Thirty minutes later, indomethacin (15 mg/kg) was administered subcutaneously and rats were killed 24 hours later. Mucosal lesions were again measured along the greatest diameter. […] SCS administration was repeated again 6 hours after indomethacin injection."}, "[5]": {"tested_on": "mice", "assay": "Acute toxicity in mice", "assay_type": "in vivo", "description": "a. Route of Administration: intravenous and intraperiotoneal injection\nb. Route of administration: the oral route"}, "[6]": {"tested_on": "rats", "assay": "Subacute toxicity, 30 days", "assay_type": "in vivo"}, "[7]": {"tested_on": "Gastric cancer cells", "assay": "Effect of SCS on p^53 mutations of cancer cells (PCR-SSCP)", "assay_type": "cell-based", "conditions": "Gastric cancer cells treated by SCS"}, "[8]": {"tested_on": "RBL-5", "assay": "NK cell activity of mice (^51Cr release), RBL-5 target cells", "assay_type": "in vivo", "conditions": "oral dose of 100 mg/kg"}, "[9]": {"tested_on": "Hepatoma", "assay": "DNA synthesis of cancer cells ([^3H]TdR incorporation), hepatoma", "assay_type": "in vivo, rats", "procedure": "(§3) The method of animal and liver was described previously. Ascitric hepatoma, S180-ν, the transplantable 3924 used. After treatment with SCS (100 mg/kg), rats were injected with [^3H]-TdR (10 μc/μmole). Two hours after injection the animals were decapitated and examined. Livers and tumors were rapidly removed and blotted on filter paper. Tumors were carefully dissected free of necrotic, hemorrhagic, and nontumorous material. Tissues were minced with sharp scissors and 2 gm. DNA was prepared from the tissues. The radioactivity of the DNA was determined by liquid scintillation counting.\n(§4) The incorporation of thymidine into DNA ws expressed as cpm/mg of DNA or cpm/gm of tissue."}, "[10]": {"tested_on": "Aflatoxin B1 induced liver cancer", "parameters": "species or system rats", "conditions": "rat, in vivo"}, "[11]": {"tested_on": "c-myb RNA", "assay": "Inhibition of oncogene expression in ML-1 cells (northern blot), c-myb", "assay_type": "cell-based, Human", "procedure": "Human myeloblastic leukemic cells (ML-1) were maintained in suspension culture in RPMI 1640 medium supplemented with 7.5% heat-inactivated FBS. Cells growth and viability were assayed by hemocytometer using trypan-blue dye exclusion.\nRNA was isolated by the CsCl gradient modification. RNA pellets were washed twice by reprecipitation in ethanol and quantitated by absorbency at […]. RNA analyzed by electrophoresis of 15 μg of RNA through 1.2% agarose formaldehyde gels followed by northern blot transfer to nitrocellulose.\nSingle-standard uniformly labeled DNA probes were prepared. Probe of c-myc was a 1.7 Kb cla-Eco RI restriction fragment containing the 3′exon region of human c-myc and probe of c-myb was 1.0 Kb myb-specific Bam HI fragment. Probes for n-ras contained DNA fragments using a modification of the PCR technique. Probes for myb, myc and n-ras were isolated. The isolated fragments were labeled to high specific activity with [α^32P]-dCTP (3000 ci/mmol).\nPrehybridization of the filter was performed. The hybridization mixer contained 50,000 cpm of probe. The probes were hybridized at 58° C. in 15 mM NaCl, […] sodium citrate for 3 hours. After hybridization, they were exposed to XAR-5 film. Oncogene expression was quantitated by densitometer scanning of the autoradiography."}, "[12]": {"tested_on": "Glutathione (GSH)", "assay": "Hepatic mitochondrial GSH level in CCl4-treated mice", "assay_type": "in vivo", "conditions": "CCl4 + SCS", "procedure": "as §1\nThe rats were starved overnight before decapitation. The livers were perfused in situ with ice-cold 1.15% KCl solution. Tissue homogenate was prepared by homogenizing 1 g of hepatic tissue sample in 10 mL ice-cold homogenizing buffer with two 10-secbursts of atissue disintegrator at 135,000 rpm. Hepatic mitochondrial fraction was prepared by differential centrifugation in isotonic buffer ([…], 0.1 mM EDTA, 5 mM Tris, pH 7.4).\nThe experiments of animal and livers were performed as previously described. Glutathione (GSH) level was determined by an HPLC method. In the present study, the effect of SCS on GHS and GRD were examined."}, "[13]": {"tested_on": "mitochondrion oxygen consumption", "assay": "Mitochondrion oxygen consumption (respiratory control ratio) with TET", "assay_type": "biochemical", "conditions": "TET 5 μl/L + SCS (100 μmol/L)", "procedure": "as §2"}, "[14]": {"tested_on": "NADPH-cytochrome Creductase", "assay": "Hepatic microsomal monooxygenases: NADPH-cytochrome C reductase", "assay_type": "in vivo", "conditions": "rat liver microsomes, treatment group"}, "[15]": {"tested_on": "complement", "assay": "Effect of SCS on complement", "assay_type": "in vivo, mice"}, "[16]": {"tested_on": "S-180", "assay": "DNA synthesis of cancer cells ([^3H]TdR incorporation), S-180", "assay_type": "in vivo, rats", "procedure": "as §3, §4"}, "[17]": {"conditions": "intragastric route, 500 mg/kg daily, 30 consecutive days"}, "[18]": {"conditions": "rats, 500 mg/kg daily injected, 30 days"}}, "note": "Marks after values point to notes of the source that are not given here."}
{"compound": "COc1cc2c(c(OC)c1OC)-c1c(cc(OC)c(OC)c1OC)C[C@](C)(O)[C@@H](C)C2", "note": "[SCS, Schisandrin]", "values": [{"measurement": "ALT (X ± S)", "setting": "[1]; CCl4 + SCS, serum, mice, SCS 50 mg/kg intragastrically daily for 4 days", "result": "68.8 ± 7.0", "unit": "U L^−1"}, {"measurement": "CCl4 toxicity decreased by SCS (ALT)", "setting": "[1]; CCl4 mice, versus control", "result": 87.9, "unit": "%"}, {"measurement": "Benzpyrene hydroxylase", "setting": "[2]", "result": "51.8 ± 6.5", "unit": "nmol/mg protein"}, {"measurement": "ATP", "setting": "[3]", "result": "35.8 ± 4.0* 100 μmol/L"}, {"measurement": "Lesion area (mm^2) Small intestine", "setting": "[4]; SCS 10 mg/kg", "result": "350 ± 38* mm^2"}, {"measurement": "Lesion area (mm^2) Small intestine", "setting": "[4]; SCS 25 mg/kg", "result": "321 ± 33** mm^2"}, {"measurement": "Lesion area (mm^2) Small intestine", "setting": "[4]; SCS 50 mg/kg", "result": "295 ± 30** mm^2"}, {"measurement": "LD50", "setting": "[5]; intragastric administration", "result": 5200, "unit": "mg/kg"}, {"measurement": "LD50", "setting": "[5]; intraperitoneal injection", "result": 1250, "unit": "mg/kg"}, {"measurement": "LD50 intravenous versus dose used in clinical trials for human being", "setting": "[5]; intravenous", "result": "> 100", "unit": "times"}, {"measurement": "LD50", "setting": "[5]; intravenous injection", "result": 720, "unit": "mg/kg"}, {"measurement": "Behavior of the animal", "setting": "[6]; [17]", "result": "remained normal"}, {"measurement": "Liver and kidney function, histological picture of important organs", "setting": "[6]; [17]", "result": "no abnormalities"}, {"measurement": "Consumption of water, food and body weights versus control", "setting": "[6]; [18]", "result": "did not show any differences"}, {"measurement": "Depressive, excitatory or sleepiness symptoms", "setting": "[6]; [18]", "result": "no depressive, excitatory or sleepiness symptoms"}, {"measurement": "Microscopic inspection of stomach, liver, spleen and kidneys and their relative weights", "setting": "[6]; [18]", "result": "no alteration"}, {"measurement": "Frequency of p^53 mutations (%)", "setting": "[7]", "result": 10, "unit": "%"}, {"measurement": "% Specific lysis (mean ± SEM) RBL-5", "setting": "[8]; effector/target 50:1", "result": "12.1 ± 1.2", "unit": "%"}, {"measurement": "% Specific lysis (mean ± SEM) RBL-5", "setting": "[8]; effector/target 100:1", "result": "19.8 ± 2.0", "unit": "%"}, {"measurement": "Tissue inhibition rate (%)", "setting": "[9]; Hepatoma T versus C", "result": 56.4, "unit": "%"}, {"measurement": "[^3H]TdR into DNA × 10^−3 cm/mg", "setting": "[9]; Hepatoma T, SCS 100 mg/kg", "result": "8.8 ± 0.80 × 10^−3 cm/mg"}, {"measurement": "% of iron-excluding area in liver section", "setting": "[10]", "result": "2.2 ± 0.2", "unit": "%"}, {"measurement": "Inhibition %", "setting": "[10]", "result": 87.8, "unit": "%"}, {"measurement": "Inhibition (%) c-myb RNA", "setting": "[11]; SCS concentration 10 ng/ml", "result": "65.0 ± 5.7", "unit": "%"}, {"measurement": "Inhibition (%) c-myb RNA", "setting": "[11]; SCS concentration 50 ng/ml", "result": "67.7 ± 6.8", "unit": "%"}, {"measurement": "GSH", "setting": "[12]", "result": "21.8 ± 2.0", "unit": "nmol/mg protein"}, {"measurement": "RCR (respiratory control ratio)", "setting": "[13]", "result": "12.5 ± 1.10"}, {"measurement": "NADPH-cytochrome Creductase", "setting": "[14]", "result": "202.5 ± 22", "unit": "nmol/mg protein"}, {"measurement": "C.P.M.", "setting": "[15]; treatment group", "result": "480 ± 51"}, {"measurement": "CPM of T/C", "setting": "[15]; treatment versus control", "result": 194.3, "unit": "%"}, {"measurement": "Tissue inhibition rate (%)", "setting": "[16]; S-180 T versus C", "result": 43.2, "unit": "%"}, {"measurement": "[^3H]TdR into DNA × 10^−3 cm/mg", "setting": "[16]; S-180 T, SCS 100 mg/kg", "result": "39.8 ± 5.2 × 10^−3 cm/mg"}]}
